Test results reported in patent publication US11708366B2, “Heteroaryl substituted spiropiperidinyl derivatives and pharmaceutical uses thereof” (Novartis AG, priority 2020, dated 2023).
pIC50: −log10 of the molar value.

Assays:
[1] = biological target: T1, LTC4S (Homo sapiens (Human), UniProt Q16873); assay: Human LTC4S enzymatic assay (HTRF detection of LTC4-Me); type: biochemical
Method: A. Human LTC4S Enzymatic Assay:
LTC4 synthase catalyzes the conversion of Leukotriene A4 (LTA4) to Leukotriene C4 (LTC4) in the presence of reduced glutathione (GSH) as a co-substrate. For compound testing, compounds are delivered as 10 mM stock solutions in 90% DMSO in matrix tubes. From this, a 1:3 dilution dose response series is prepared with a starting concentration of 30 μM to 0.1 nM. For the enzymatic assay 97.5 nL of compound/DMSO solution is transferred to each well and 5 μL enzyme solution (assay buffer: 50 mM bis-tris propane pH 7.3, 250 mM NaCl, 10 mM MgCl2, 0.001% MGN3) is added to the wells. […] The enzyme compound mixture is incubated at room temperature for 15 minutes prior to the addition of 5 μL substrate solution. […] A final substrate concentration of 400 μM GSH and 5 μM LTA4-Me is chosen.
The LTA4-Me is obtained commercially in 2% triethylamine/hexane solvent. As this solvent is incompatible with the HTRF assay it has to be exchanged with DMSO according to following procedure: add 50 μL of 100% DMSO to 50 μL LTA4-Me (3 mM) in a 2 mL Eppendorf tube and mix gently by inverting the tube. The triethylamine/hexane is evaporated under a constant argon flux at room temperature. The DMSO-LTA4-Me (3 mM) is aliquoted and stored at −20° C. for not longer than 4 weeks, as it is not stable in DMSO due to its oxidizing properties.
Upon addition of the substrate, the plate is immediately placed on a shaker for 5 min at room temperature. Immediately after the 5 min incubation 5 μL of H2O2 solution is added to all wells to stop the reaction. The plate contents are mixed before the addition of detection reagents. […] For the detection of the product of the enzymatic reaction LTC4-Me, the Cisbio LTC4-HTRF kit is used as the assay is compatible with the detection of LTC4-Me. 5 μL of diluted LTC4-d2 conjugate (according to manufacturer's protocol) are added to all wells of the assay plate and the contents gently mixed and incubated for 5 minutes at room temperature. […] The percent inhibition for each point of an inhibition curve is calculated after data interpolation using the LTC4-Me standard curve, to convert the HTRF signal to the amount of LTC4-Me produced within the LTC4S catalyzed reaction on each plate. The data is analyzed using parametric curve fitting to determine IC50 values of LTC4S inhibitors.

[2] = biological target: T1, LTC4S; assay: Human whole blood HTRF assay (LTC4 release after calcium ionophore A23187); type: cell-based; settings: calcium ionophore A23187 stimulation, LTC4 by HTRF
[3] = 0.75 nM enzyme, 400 μM GSH, 5 μM LTA4-Me, 15 min pre-incubation, read-out: human LTC4S IC50 (enzymatic assay)
[4] = human whole blood diluted 1:3, 4 h incubation, read-out: human whole blood HTRF IC50

Compound | pIC50 [1, 3] | pIC50 [2, 4] | pIC50 [1] | pIC50 ([2]; human whole blood HTRF IC50, human whole blood diluted 1:3, 4 h incubation)
O=C1CCCC2(CCN(c3nncc(C4CCCC4)n3)CC2)N1c1ccc(Cl)c(F)c1 [Example 20, 1-(4-chloro-3-fluorophenyl)-9-(5-cyclopentyl-1,2,4-triazin-3-yl)-1,9-diazaspiro[5.5]undecan-2-one] | 7.92 | 7.19 | – | –
O=C1CCCC2(CCN(c3ncn(-c4ccc(F)cc4)n3)CC2)N1c1ccc(Cl)c(F)c1 [Example 1, 1-(4-chloro-3-fluorophenyl)-9-(1-(4-fluorophenyl)-1H-1,2,4-triazol-3-yl)-1,9-diazaspiro[5.5]undecan-2-one] | 8.22 | 7.89 | – | –
O=C1CCCC2(CCN(c3nccc(C(F)(F)F)n3)CC2)N1c1ccc(Cl)c(F)c1 [Example 3, 1-(4-chloro-3-fluorophenyl)-9-(4-(trifluoromethyl)pyrimidin-2-yl)-1,9-diazaspiro[5.5]undecan-2-one] | 8.10 | 6.74 | – | –
O=C1CCCC2(CCN(c3ncc4ccc(C(F)(F)F)cc4n3)CC2)N1c1ccc(Cl)c(F)c1 [Example 4, 1-(4-chloro-3-fluorophenyl)-9-(7-(trifluoromethyl)quinazolin-2-yl)-1,9-diazaspiro[5.5]undecan-2-one] | 8.15 | 7.30 | – | –
O=C1CCCC2(CCN(c3cc(-c4ccc(F)cc4)cc[n+]3[O-])CC2)N1c1ccc(Cl)c(F)c1 [Example 33, 2-(1-(4-chloro-3-fluorophenyl)-2-oxo-1,9-diazaspiro[5.5]undecan-9-yl)-4-(4-fluorophenyl)pyridine 1-oxide] | 7.62 | 7.25 | – | –
O=C1CCCC2(CCN(c3ccn4nc(C(F)(F)F)cc4n3)CC2)N1c1ccc(Cl)c(F)c1 [Example 5, 1-(4-chloro-3-fluorophenyl)-9-(2-(trifluoromethyl)pyrazolo[1,5-a]pyrimidin-5-yl)-1,9-diazaspiro[5.5]undecan-2-one] | 8.30 | 8.00 | – | –
O=C1CCCC2(CCN(c3ncnc(N4CCCC4)c3F)CC2)N1c1ccc(Cl)c(F)c1 [Example 36, 1-(4-chloro-3-fluorophenyl)-9-(5-fluoro-6-(pyrrolidin-1-yl)pyrimidin-4-yl)-1,9-diazaspiro[5.5]undecan-2-one] | 8.22 | 7.36 | – | –
O=C1CCCC2(CCN(c3nnc(-c4ccccc4)o3)CC2)N1c1ccc(Cl)c(F)c1 [Example 28, 1-(4-chloro-3-fluorophenyl)-9-(5-phenyl-1,3,4-oxadiazol-2-yl)-1,9-diazaspiro[5.5]undecan-2-one] | 6.96 | 6.35 | – | –
O=C1CCCC2(CCN(c3nsc(N4CC(C(F)(F)F)C4)n3)CC2)N1c1ccc(Cl)c(F)c1 [Example 24, 1-(4-chloro-3-fluorophenyl)-9-(5-(3-(trifluoromethyl)azetidin-1-yl)-1,2,4-thiadiazol-3-yl)-1,9-diazaspiro[5.5]undecan-2-one] | 7.48 | 6.96 | – | –
O=C1CCCC2(CCN(c3ncnc(N4CCCC4)n3)CC2)N1c1ccc(Cl)c(F)c1 [Example 38, 1-(4-chloro-3-fluorophenyl)-9-(4-(pyrrolidin-1-yl)-1,3,5-triazin-2-yl)-1,9-diazaspiro[5.5]undecan-2-one] | 8.10 | 7.07 | – | –
O=C1CCCC2(CCN(c3ccnc(N4CC5(CC5)C4)n3)CC2)N1c1ccc(Cl)c(F)c1 [Example 35a, 9-(2-(5-azaspiro[2.3]hexan-5-yl)pyrimidin-4-yl)-1-(4-chloro-3-fluorophenyl)-1,9-diazaspiro[5.5]undecan-2-one] | – | – | 7.92 | 7.40
O=C1CCCC2(CCN(c3ncc(-c4ccc(F)cc4)o3)CC2)N1c1ccc(Cl)c(F)c1 [Example 21, 1-(4-chloro-3-fluorophenyl)-9-(5-(4-fluorophenyl)oxazol-2-yl)-1,9-diazaspiro[5.5]undecan-2-one] | 8.40 | 8.15 | – | –
O=C1CCCC2(CCN(c3cc(OCC(F)F)ncn3)CC2)N1c1ccc(Cl)c(F)c1 [Example 84, 1-(4-chloro-3-fluorophenyl)-9-(6-(2,2-difluoroethoxy)pyrimidin-4-yl)-1,9-diazaspiro[5.5]undecan-2-one] | 8.10 | 8.05 | – | –
1-(4-chloro-3-fluorophenyl)-9-(5-((1R,2R)-2-(trifluoromethyl)cyclopropyl)-1,2,4-oxadiazol-3-yl)-1,9-diazaspiro[5.5]undecan-2-one, or 1-(4-chloro-3-fluorophenyl)-9-(5-((1S,2S)-2-(trifluoromethyl)cyclopropyl)-1,2,4-oxadiazol-3-yl)-1,9-diazaspiro[5.5]undecan-2-one [Example 6a] | 6.72 | 6.51 | – | –
O=C1CCCC2(CCN(c3nnn(-c4ccccc4)n3)CC2)N1c1ccc(Cl)c(F)c1 [Example 22, 1-(4-chloro-3-fluorophenyl)-9-(2-phenyl-2H-tetrazol-5-yl)-1,9-diazaspiro[5.5]undecan-2-one] | 7.96 | 6.28 | – | –
O=C1CCCC2(CCN(c3cc(OCC(F)(F)F)ccn3)CC2)N1c1ccc(Cl)c(F)c1 [Example 81, 1-(4-chloro-3-fluorophenyl)-9-(4-(2,2,2-trifluoroethoxy)pyridin-2-yl)-1,9-diazaspiro[5.5]undecan-2-one] | 7.89 | 7.14 | – | –
O=C1CCCC2(CCN(c3cccc(-c4ccc(F)cc4)n3)CC2)N1c1ccc(Cl)cc1 [Example 32, 1-(4-chlorophenyl)-9-(6-(4-fluorophenyl)pyridin-2-yl)-1,9-diazaspiro[5.5]undecan-2-one] | 8.15 | 6.77 | – | –
O=C1CCCC2(CCN(c3nc(-c4ccc(F)cc4)n[nH]3)CC2)N1c1ccc(Cl)c(F)c1 [Example 26, 1-(4-chloro-3-fluorophenyl)-9-(3-(4-fluorophenyl)-1H-1,2,4-triazol-5-yl)-1,9-diazaspiro[5.5]undecan-2-one] | 7.80 | 6.96 | – | –
O=C1CCCC2(CCN(c3nsc(N4CCCC4)n3)CC2)N1c1ccc(Cl)c(F)c1 [Example 25, 1-(4-chloro-3-fluorophenyl)-9-(5-(pyrrolidin-1-yl)-1,2,4-thiadiazol-3-yl)-1,9-diazaspiro[5.5]undecan-2-one] | 7.21 | 6.77 | – | –
O=C1CCCC2(CCN(c3ncc(C4CCCCC4)o3)CC2)N1c1ccc(Cl)c(F)c1 [Example 27, 1-(4-chloro-3-fluorophenyl)-9-(5-cyclohexyloxazol-2-yl)-1,9-diazaspiro[5.5]undecan-2-one] | 7.60 | 7.23 | – | –
O=C1CCCC2(CCN(c3nsc(N4CCC(F)(F)C4)n3)CC2)N1c1ccc(Cl)c(F)c1 [Example 23, 1-(4-chloro-3-fluorophenyl)-9-(5-(3,3-difluoropyrrolidin-1-yl)-1,2,4-thiadiazol-3-yl)-1,9-diazaspiro[5.5]undecan-2-one] | 7.21 | 7.35 | – | –
O=C1CCCC2(CCN(c3noc(C45CC(C(F)(F)F)(C4)C5)n3)CC2)N1c1ccc(Cl)c(F)c1 [Example 7, 1-(4-chloro-3-fluorophenyl)-9-(5-(3-(trifluoromethyl)bicyclo[1.1.1]pentan-1-yl)-1,2,4-oxadiazol-3-yl)-1,9-diazaspiro[5.5]undecan-2-one] | 7.12 | 7.00 | – | –
O=C1CCCC2(CCN(c3cc(N4CC(F)(F)C(F)(F)C4)ncn3)CC2)N1c1ccc(Cl)c(F)c1 [Example 44, 1-(4-chloro-3-fluorophenyl)-9-(6-(3,3,4,4-tetrafluoropyrrolidin-1-yl)pyrimidin-4-yl)-1,9-diazaspiro[5.5]undecan-2-one] | 7.89 | – | – | –
O=C1CCCC2(CCN(c3ncnc(N4CC(C(F)(F)F)C4)c3F)CC2)N1c1ccc(Cl)c(F)c1 [Example 37, 1-(4-chloro-3-fluorophenyl)-9-(5-fluoro-6-(3-(trifluoromethyl)azetidin-1-yl)pyrimidin-4-yl)-1,9-diazaspiro[5.5]undecan-2-one] | 7.92 | 6.92 | – | –
O=C1CCCC2(CCN(c3cnn(-c4ccc(F)cc4)n3)CC2)N1c1ccc(Cl)c(F)c1 [Example 31, 1-(4-chloro-3-fluorophenyl)-9-(2-(4-fluorophenyl)-2H-1,2,3-triazol-4-yl)-1,9-diazaspiro[5.5]undecan-2-one] | 7.82 | 6.92 | – | –
